Results as given in PMC8036666, “Biological and Physico-Chemical Characteristics of Arginine-Rich Peptide Gemini Surfactants with Lysine and Cystine Spacers” (International Journal of Molecular Sciences, 2021).
Converted amounts (≈) assume the structure as drawn. “And” between values parts separate entries of the source, which are not always exact repeats. Equal entries are not always repeated. Where two headings read alike, the source gives them in different places. Where a SMILES comes first, the peptide text is derived from it. Bridges are numbered along the chain shown (N, C = ends). Roman numbers before positions name the chains, in order. Side-chain parts run from the residue outwards. The star is where a group is joined. Lauroyl = CCCCCCCCCCCC(=O)*; Octanoyl = CCCCCCCC(=O)*

Legend:
[1] = system: Staphylococcus aureus ATCC 25923
Protocol: (§1) The Acinetobacter baumannii ATCC BAA-1605, Enterococcus faecium ATCC 700221, Escherichia coli ML-35 ATCC 43827, Klebsiella aerogenes ATCC 13048, Klebsiella pneumoniae ATCC 700603, Pseudomonas aeruginosa ATCC 9027, Staphylococcus aureus ATCC 25923, Staphylococcus aureus ATCC 33591, Candida albicans ATCC 10231, Candida glabrata ATCC 15126, strains were acquired from the American Type Culture Collection (ATCC). All the strains were stored at −80 °C in Roti-Store cryo vials and before the tests were transferred into fresh Mueller–Hinton broth (MHB, Biocorp, Warsaw, Poland) for bacteria or RPMI-1640 (Sigma-Aldrich, Steinheim, Germany) for fungi and incubated for 24 h at 37 °C. Then, the cultures were seeded on the Mueller–Hinton agar (BioMaxima, Lublin, Poland) or Sabouraud dextrose agar (SDA, BioMaxima, Lublin, Poland) plates, respectively, and incubated as just mentioned. These agar cultures were used for further microbiological assays. Cell densities for all assays were adjusted spectrophotometrically (Multiskan GO Microplate Spectrophotometer, Thermo Fisher Scientific, Vantaa, Finland) at 600 and 530 nm for bacteria and fungi, respectively.
(§2) The MICs were determined by the broth microdilution method according to the Clinical and Laboratory Standard Institute guidelines. […] The experiments were conducted on 96-well microtiter polystyrene plates (Kartell, Noviglio, Italy). The growth was assessed visually after incubation, and the MIC was assumed as the lowest peptide concentration at which a noticeable growth of microorganisms was inhibited. All experiments were conducted in triplicate.

[2] = system: Acinetobacter baumannii ATCC BAA 1605
Protocol: as §1, §2

[3] = system: Pseudomonas aeruginosa ATCC 9027
Protocol: as §1, §2

[4] = system: Enterococcus faecium ATCC 700221
Protocol: as §1, §2

[5] = system: Klebsiella pneumoniae ATCC 700603
Protocol: as §1, §2

[6] = system: Klebsiella aerogenes ATCC 13048
Protocol: as §1, §2

[7] = system: human red blood cells (hRBCs); assay: Hemolysis assay; assay type: cell-based; conditions: 1 h
Protocol: The hemolysis assay was performed by using the method reported previously. Fresh human red blood cells (hRBCs) with anticoagulant (EDTA) were rinsed three times with a PBS by centrifugation at 800× g for 10 min and diluted with PBS. The compounds were serially diluted on a 96-well microtiter polystyrene plate, and hRBCs were added up to a final volume of 100 μL. The compound concentration ranged between 0.5 and 256 μg/mL and the final hRBCs concentration was 4% (v/v). Controls for zero (blank) and 100% hemolysis consisted of hRBCs suspended in PBS and 1% of Triton-X 100 (Carl Roth GmbH, Karlsruhe, Germany), respectively. The plate was incubated for 1 h at 37 °C and then centrifuged (800× g, 10 min, 4 °C). Subsequently, the supernatant was […] to new microtiter plates, and the absorbance at 540 nm was measured (Multiskan GO Microplate Spectrophotometer, Thermo Fisher Scientific, Vantaa, Finland). All experiments were conducted in triplicate. HC50 was calculated using an ic50.tk tool. The protocol of the study was approved by the local Bioethics Committee at the Medical University of Gdańsk (NKBBN/262/2019, approval date: 10 June 2019).

[8] = system: Staphylococcus aureus ATCC 33591
Protocol: as §1, with “[…],” for “Poland) for bacteria or RPMI-1640 (Sigma-Aldrich,”, “Cell densities for all assays were adjusted spectrophotometrically (Multiskan GO Microplate Spectrophotometer, Thermo Fisher Scientific, Vantaa, Finland) at 600 and 530 nm for bacteria and fungi, respectively.” left out
as §2

[9] = Critical aggregation concentration by surface tension (Du Noüy ring, K100 tensiometer); assay type: physicochemical; conditions: unbuffered aqueous solution, 298 K
Protocol: The identity of the purified peptides was confirmed with electrospray ionization mass spectrometry (ESI-MS) in positive ion mode. Results of MS analyses and net charge are attached in Supplementary Materials (Table S1). Peptides’ hydrophobicity was evaluated by analytical reversed-phase high-performance liquid chromatography (RP-HPLC). The critical aggregation concentrations (CACs) of the lipopeptides were determined in unbuffered aqueous solution at 298 K by measuring the surface tension as a function of lipopeptide concentration. The measurements were carried out by the Du Noüy ring method on a K100 tensiometer. The surface tension data were plotted against the logarithm of lipopeptide concentration. CAC was found as the intersection of two lines being linear regression of data below and above CAC.
The critical aggregation concentration (CAC) values were determined fully automatically using a K100 tensiometer (KRUSS, Hamburg, Germany) equipped with two micro dosimeters by measuring the surface tension vs. lipopeptide concentration. The measurements were performed in unbuffered aqueous solution at 298 K using the Du Noüy ring method. The accuracy of the surface tension measurements was 0.1 mN/m. The critical aggregation concentration (CAC) was defined as the intersection of two lines fitted to the experimental data collected before and after the inflection point.

HaCaT cells = assay type: cell-based, human; conditions: 24 h
Protocol: Cells were trypsinized, and the medium was renewed 2–3 times per week. The cytotoxicity of compounds was assessed by the determination of cell metabolic activity by colorimetric CellTilter 96® Aqueous One Solution Cell Proliferation Assay (Promega, Madison, WI, USA), according to the manufacturer’s instructions. […] Every compound was medium-soluble in 37 °C; thus, the control cells were cultured with the medium. Serial dilutions of the tested compounds were always prepared prior to use. Cells were incubated with drugs for 24 h, and then, 20 μL of the CellTiter 96®AqueousOne Solution Reagent was added to each well containing cells maintained in 100 μL of culture medium.

Structure (SMILES)	MIC Staphylococcus aureus ATCC 25923 ([1]; ATCC 25923, 24 h) [µg/mL]	MIC Acinetobacter baumannii ATCC BAA 1605 ([2]; ATCC BAA 1605, 24 h) [µg/mL]	MIC Pseudomonas aeruginosa ATCC 9027 ([3]; ATCC 9027, 24 h) [µg/mL]	MIC Enterococcus faecium ATCC 700221 ([4]; ATCC 700221, 24 h) [µg/mL]	MIC Klebsiella pneumoniae ATCC 700603 ([5]; ATCC 700603, 24 h) [µg/mL]	MIC Klebsiella aerogenes ATCC 13048 ([6]; ATCC 13048, 24 h)	HC50 ([7]; red cells of human) [µg/mL]	MIC Staphylococcus aureus ATCC 33591 ([8]; ATCC 33591, 24 h) [µg/mL]	CAC [9]	Surface Tension at CAC [9] [mN/m]	IC50 (HaCaT cells) [µg/mL]	MIC Staphylococcus aureus ATCC 25923 ([1]; planktonic culture) [µg/mL]	MIC Acinetobacter baumannii ATCC BAA 1605 ([2]; planktonic culture) [µg/mL]	MIC Pseudomonas aeruginosa ATCC 9027 ([3]; planktonic culture) [µg/mL]	MIC Enterococcus faecium ATCC 700221 ([4]; planktonic culture) [µg/mL]	MIC Klebsiella pneumoniae ATCC 700603 ([5]; planktonic culture) [µg/mL]	MIC Klebsiella aerogenes ATCC 13048 ([6]; planktonic culture) [µg/mL]	HC50 ([7]; hRBCs 4% (v/v), 37 °C) [µg/mL]	MIC Staphylococcus aureus ATCC 33591 ([8]; planktonic culture) [µg/mL]	IC50 (HaCaT cells; HaCaT, MTS) [µg/mL]
CCCCCCCCCCCC(=O)N[C@@H](CCCNC(=N)N)C(=O)N[C@@H](CCCNC(=N)N)C(=O)NCCCC[C@H](NC(=O)[C@H](CCCNC(=N)N)NC(=O)[C@H](CCCNC(=N)N)NC(=O)CCCCCCCCCCC)C(N)=O [Compound B3] (Lauroyl-Arg-Arg-Lys([Arg-Arg-Lauroyl])-NH2)	4 (≈ 3.53 µM)	8 (≈ 7.05 µM)	4 (≈ 3.53 µM)	2 (≈ 1.76 µM)	64 (≈ 56.4 µM)	32 µg/mL (≈ 28.2 µM)	56.29 ± 6.50	2 (≈ 1.76 µM)	0.87 mM and 987.3 μg/mL	41	26.42 ± 4.24 (≈ 23.3 µM)	–	–	–	–	–	–	–	–	–
CCCCCCCC(=O)N[C@@H](Cc1ccccc1)C(=O)N[C@@H](CCCNC(=N)N)C(=O)N[C@@H](CCCNC(=N)N)C(=O)NCCCC[C@H](NC(=O)[C@H](CCCNC(=N)N)NC(=O)[C@H](CCCNC(=N)N)NC(=O)[C@H](Cc1ccccc1)NC(=O)CCCCCCC)C(N)=O [Compound B5] (Octanoyl-FRRK([Arg-Arg-Phe-Octanoyl])-NH2)	2 (≈ 1.52 µM)	32 (≈ 24.3 µM)	8 (≈ 6.08 µM)	4 (≈ 3.04 µM)	128 (≈ 97.2 µM)	256 (−/−) µg/mL	181.38 ± 8.99	4 (≈ 3.04 µM)	2.47 mM and 3247.9 μg/mL	39	169.13 ± 32.80 (≈ 128 µM)	–	–	–	–	–	–	–	–	–
CCCCCCCC(=O)N[C@@H](Cc1ccccc1)C(=O)N[C@@H](CCCNC(=N)N)C(=O)N[C@@H](CCCNC(=N)N)C(=O)N[C@@H](CSSC[C@H](NC(=O)[C@H](CCCNC(=N)N)NC(=O)[C@H](CCCNC(=N)N)NC(=O)[C@H](Cc1ccccc1)NC(=O)CCCCCCC)C(N)=O)C(N)=O [Compound C5] (I: Octanoyl-FRRC-NH2 / II: Octanoyl-FRRC-NH2; disulfide I:4-II:4)	–	–	–	–	–	–	–	–	2.58 mM and 3632.7 μg/mL	37	–	2 (≈ 1.42 µM)	32 (≈ 22.7 µM)	8 (≈ 5.67 µM)	2 (≈ 1.42 µM)	32 (≈ 22.7 µM)	128 (≈ 90.8 µM)	117.06 ± 4.60	2 (≈ 1.42 µM)	146.63 ± 14.95 (≈ 104 µM)
